ChEMBL document CHEMBL1131849, “Synthesis and biological characterization of sqbazide, a novel biotinylated photoaffinity probe for the study of the human platelet thromboxane A2 receptor” (Bioorg Med Chem Lett, 1999)
The source made the active and inactive calls. The calls are words filed in the database; no cut-off is given here.

Assays:
Homo sapiens [1] = species on record: Homo sapiens; test: Tested for inhibition of platelet aggregation induced by ADP; Inactive; type: functional, organism-based
Homo sapiens [2] = species on record: Homo sapiens; test: Inhibitory activity against human platelet aggregation.; type: functional, organism-based
Thromboxane A2 receptor = biological target: T1, Thromboxane A2 receptor (Homo sapiens, UniProt P21731); test: Binding affinity to human platelet TXA2 receptors as ability to displace binding [3H]SQ-29,548
T1 sequence (P21731 whole entry): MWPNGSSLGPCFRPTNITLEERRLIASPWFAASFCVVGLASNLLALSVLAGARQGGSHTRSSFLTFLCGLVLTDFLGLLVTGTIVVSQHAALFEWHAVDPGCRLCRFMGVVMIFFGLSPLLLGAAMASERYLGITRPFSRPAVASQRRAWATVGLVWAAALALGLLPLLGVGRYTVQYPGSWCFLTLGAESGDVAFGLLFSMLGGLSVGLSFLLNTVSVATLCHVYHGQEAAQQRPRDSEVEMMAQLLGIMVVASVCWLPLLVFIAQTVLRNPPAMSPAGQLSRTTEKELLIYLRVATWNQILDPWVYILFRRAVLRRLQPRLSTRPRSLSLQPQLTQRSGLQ

Homo sapiens [3] = species on record: Homo sapiens; test: Tested for inhibition of platelet aggregation induced by A-23187; Inactive; type: functional, organism-based

IC50 (Homo sapiens [2]): 500 nM | Ki (Thromboxane A2 receptor): 625 nM
SMILES: [N-]=[N+]=Nc1ccc(CCCC(=O)NCC(=O)NCC2C3CCC(O3)C2C/C=C\CCCC(=O)NNC(=O)CCCC[C@H]2SC[C@H]3NC(=O)N[C@H]32)cc1 (some centres undefined)
Activity (Homo sapiens [1]): inactive | Activity (Homo sapiens [3]): inactive
